These results are taken from ChEMBL document CHEMBL3507680, “University of Dundee, Gates Library screen for HepG2 cell viability”.

SMILES strings stand for the structures.

A short description of the data set: Human HepG2 cell viability assay in 384 well format. Format: toxicity, cell-based. On the set-up: dose 125 nL, time 70.5 hour; concentration not given beside the values. The settings on record: HepG2 cells, read-out: Inhibition.
Turning to `CCc1noc(CS(=O)(=O)C/C=C/c2ccccc2)n1`, the cytotoxicity at 70.5 h is -10.8%. Next, `CCn1c(C)cc(C(=O)NCc2ccc(CS(C)(=O)=O)cc2)c1C`: -7.81%; `Fc1cccc(NCc2ncc[nH]2)c1`: -8.15%; `CNC(=O)c1cccc(CCNC(=O)N2CCc3ccccc3C2)c1`: -1.68%. To `CC(C)c1nc(S(=O)(=O)N(C)c2ccc(F)cc2)c[nH]1` belongs -7.45%; to `Cc1nccc(CNS(=O)(=O)N2CCCC2c2ccc(C)o2)n1` (stereo unspecified), -9.86%. To `Cc1noc(CCCNS(=O)(=O)N2CCCC2c2ccco2)n1` (stereo unspecified) belongs -9.07%; to `Cc1noc(CCNS(=O)(=O)N2CCCC2c2ccc(C)o2)n1` (stereo unspecified), 9.73%. For `Cc1cc(SC(C)(C)C)ccc1NC(=O)CNC(N)=O`, the cytotoxicity at 70.5 h was -9.26%. Next, `Cc1cccc(I)c1C(=O)NCc1ncc[nH]1`: -10.8%; `COc1cc(C(=O)N(C)Cc2cc(C(=O)O)c(C)o2)cc(OC)c1OC`: -7.77%; `Cc1cccc(C(=O)N2CCCC2c2c(C)n[nH]c2C)c1` (stereo unspecified): -2.31%. To `Cc1cnn(CCNC(C)c2nnc(-c3cccc(Cl)c3)o2)c1` (stereo unspecified) belongs -6.22%; to `Cc1cccc(C(=O)Nc2ccc(OC3CCOCC3)c(C)c2)n1`, 15.2%. To `CC(C)c1nc(S(=O)(=O)N(C)c2cc(F)ccc2F)c[nH]1` belongs -4.89%.

`CC(CC#N)N(C)Cc1ccccc1Cl` (stereo unspecified): the cytotoxicity at 70.5 h is -7.77%. Next, `CC(CCNC(=O)NCCc1ccncc1)c1ccccc1` (stereo unspecified): -0.345%; `O=S(=O)(CCc1ccccc1)Cc1nc(C2CC2)no1`: -13%. Next, `C=C(C)CN(CC)Cc1nc(C2CC2)no1`: -5.54%; `O=C(Cn1cncn1)NCC1(O)CCCc2ccccc21` (stereo unspecified): 23.9%. Take `COc1ccc(NC(=O)C2CC2)cc1OCc1cccnc1`: the cytotoxicity at 70.5 h turned out to be 23%.

As for `Cc1noc(C)c1CC(=O)NCC(C(C)C)N1CCOCC1` (stereo unspecified), the cytotoxicity at 70.5 h was -10.6%. To `CN(Cc1ccco1)C(=O)c1ccc(=O)n(C)c1` belongs -6.1%; to `Cc1cccc(OCC(=O)N(Cc2ccncc2)C2CC2)c1`, -0.457%. To `COc1ccccc1C(C)N1CCN(S(=O)(=O)N(C)C)CC1` (stereo unspecified) belongs 4.97%; to `COc1ccccc1C1(CNc2ncc(S(N)(=O)=O)s2)CC1`, -6.5%; to `NC(=O)C1CCN(Cc2ccc(S(=O)(=O)N3CCCC3)o2)CC1`, -3.5%. Next, `O=C(CCN1CCCCC1c1cc2ccccc2[nH]1)N1CCOCC1` (stereo unspecified): 8.08%; `O=C(Nc1ccccc1Oc1cccc(F)c1)NC1CCS(=O)(=O)C1` (stereo unspecified): 2.26%; `Cc1cc(CNC(=O)c2ccc(F)c(COCC3CC3)c2)no1`: -9.69%. On to `Cc1cc(C(=O)Nc2ccc(N3CCCC3)cn2)ccc1-n1cncn1`, for which the cytotoxicity at 70.5 h was -1.17%. Next, `COCCC1(CNC(=O)NC2CCCN(C)C2)CC1` (stereo unspecified): 0.563%; `CCc1nsc(N2CCc3sccc3C2)n1`: -2.5%; `O=C(c1ccc(O)c(Cl)c1)N(Cc1ccncc1)C1CC1`: -2.89%.

For the molecule `COC(C)(C)c1noc(C2(C#N)CCCCC2)n1`, the cytotoxicity at 70.5 h was -0.329%.

With `Cn1cc(CCNC(=O)N2CCCc3c(F)cccc32)cn1`, the cytotoxicity at 70.5 h came to 3.99%. For `CC(NCC(=O)Nc1ccc(N2CCCCCC2)cc1)c1cccs1` (stereo unspecified), the cytotoxicity at 70.5 h was -8.9%. Next, `CN(CC(=O)NCC(=O)Nc1ccc(F)cc1)Cc1cccs1`: -20.9%; `COc1ccc(Oc2cc(CN)ccn2)cc1`: 2.32%.

Turning to `CC(NCC(=O)NCC(=O)Nc1ccc(F)cc1)c1cccs1` (stereo unspecified), the cytotoxicity at 70.5 h was -17.8%. As to `CN1CC(C(=O)NCCc2ccc3c(c2)OCCO3)CC1=O` (stereo unspecified), the cytotoxicity at 70.5 h is -1.68%. To `Cc1nnc(NC(=O)NCCCN2CCC(C(N)=O)CC2)s1` belongs -8.8%; to `CCC(C)C(=O)Nc1ccc(CCN2CCOCC2)cc1` (stereo unspecified), -18.2%. With `NC(=O)C1CCN(CCCNC(=O)Nc2nccs2)CC1`, the cytotoxicity at 70.5 h is -25.9%. To `NC(=O)NC(CC(=O)N1CCc2sccc2C1)c1cccc(Br)c1` (stereo unspecified) belongs -18.1%; to `CN1CC(C(=O)NCCc2ccc(F)c(Br)c2)CC1=O` (stereo unspecified), -8.01%. Next, `Cn1ncc2c1CCCC2NCc1ccc(OCc2cccnc2)cc1` (stereo unspecified): -14.4%; `O=C(CNc1ccc(OC2CCOC2)cc1)NCc1ccc(F)cc1` (stereo unspecified): -10.9%; `COc1cc(F)c(NCc2nc3ccccc3n2C)cc1OC`: -15.9%. Next, `COCCOc1ccc(F)cc1NCc1nc2ccccc2n1C`: 11.4%; `Cc1ccc(CCc2nc(C3CCOC3)no2)o1` (stereo unspecified): 6.82%.

`CC(=O)N1CCCC(C(=O)NCCc2ccc(F)c(Br)c2)C1` (stereo unspecified): the cytotoxicity at 70.5 h was -9.08%. Take `CC(=O)N(C)C1CCCc2nc(C)sc21` (stereo unspecified): the cytotoxicity at 70.5 h is -11%. Next, `c1cnn(C2CN(Cc3noc(C4CC4)n3)C2)c1`: -7.11%.

As to `O=C(NCCn1ccnc1)c1csc2c1CCCC2`, the cytotoxicity at 70.5 h is -10.8%. To `Cc1cc(CNC(=O)CCc2ccc(S(N)(=O)=O)cc2)no1` belongs -11.1%. Next, `COCCCNC(=O)C1(NC(=O)c2ccc3[nH]ncc3c2)CCCC1`: -15.2%; `CC(C)CNC(=O)CSc1nnc(OC(C)C)s1`: -10.7%; `O=C(NC1(C(=O)NC2CCCC2)CCCC1)c1ccc2[nH]ncc2c1`: -8.68%. Next, `Cc1cc(C)c(CNC(=O)NCc2nnc3n2CCCC3)c(=O)[nH]1`: -13.4%. `CCN(CC)c1ccc(CNC(=O)C2(C)CCOCC2)cc1F`: the cytotoxicity at 70.5 h worked out at 14.4%.

For the molecule `CC(C)c1nc(C2CCCN(c3cnc4ccccc4n3)C2)no1` (stereo unspecified), the cytotoxicity at 70.5 h was -5.55%. `CCc1noc(CN(C)C(=O)COc2cc(Cl)cc(Cl)c2)n1`: the cytotoxicity at 70.5 h was determined as 1.61%. Next, `CC(C)c1nc(C2CCCN2c2cnc3cc(F)c(F)cc3n2)no1` (stereo unspecified): -5.58%.

As for `O=S1(=O)CCC(N(CCc2ccc3c(c2)CCO3)C2CC2)C1` (stereo unspecified), the cytotoxicity at 70.5 h is -1.96%. To `N#Cc1cccc(S(=O)(=O)NC(=O)COCC(F)(F)F)c1` belongs 0.976%; to `CC(=O)NC1CCCN(C(=O)CNc2cccc(C)c2Cl)C1` (stereo unspecified), 21.2%; to `COc1cc(C(=O)NCCc2cccc(C)c2)on1`, 2.66%. Next, `COc1ccc(NC(=O)NCc2cccc(N(C)C)n2)c(Cl)c1`: -8%. Next, `CN(C)c1cccc(CNC(=O)Nc2cc(C#N)ccc2Cl)n1`: -4.82%. For `CCN(C)C1CCCc2nc(C)sc21` (stereo unspecified), the cytotoxicity at 70.5 h was -5.07%. Regarding `CCC(C)NS(=O)(=O)Cc1cccc(NC(=O)c2cc[nH]c2C)c1` (stereo unspecified), the cytotoxicity at 70.5 h was -5.4%. Next, `O=C(NCCCn1ccnc1)c1csc2c1CCCC2`: 15.4%. Next, `COCCNC(=O)CSc1nnc(OC(C)C)s1`: -10.2%; `CC(C)OCCCNC(=O)CSc1nnc(OC(C)C)s1`: -4.19%; `Cc1ccc(CN2C[C@H](OCC3CCN(C)CC3)[C@H]3COC[C@H]32)o1`: 4.22%.

As for `CCN(C(=O)c1nc2c(s1)CCCN2C)C(C)C`, the cytotoxicity at 70.5 h is -1.08%.

Consider `Cc1cccc(N2CC[C@H]3CO[C@H](CN(C)Cc4ccco4)[C@H]3C2)n1`, for which the cytotoxicity at 70.5 h was -2.06%. To `Cc1cccc(S(=O)(=O)N2C[C@@H]3C[C@@H](c4nnc(C)[nH]4)O[C@@H]3C2)c1` belongs -1.93%; to `CN(C)Cc1cncc2c1CCN(CC(=O)N(C)C)C2`, 10.2%. To `CCc1cnc(N2C[C@@H]3[C@@H](C(=O)N(C)C)CCS(=O)(=O)[C@@H]3C2)nc1` belongs -7.5%; to `CC(C)CNC(=O)[C@H]1CCS(=O)(=O)[C@@H]2CN(c3ncccn3)C[C@H]12`, -10.6%; to `CC(=O)N(C)Cc1ncn2c1CN(C(=O)C1CCCO1)CCC2` (stereo unspecified), -5.86%. Consider `COc1ccccc1CNC(C)c1ccc(-n2ccnc2)cc1` (stereo unspecified), for which the cytotoxicity at 70.5 h stood at 32.7%. For the molecule `Cn1cc(C(=O)NCc2cncc3c2CCNC3)cn1`, the cytotoxicity at 70.5 h turned out to be 23.2%. Next, `CC(C)N(C)Cc1cncc2c1CCN(Cc1cccs1)C2`: -3.46%; `COCCN1CCOCC2(C1)CN(C(=O)c1conc1C)CCO2` (stereo unspecified): -1.78%. Next, `CCN1C(=O)CCCC12CCCN(C(=O)c1ccncc1F)C2` (stereo unspecified): -2.27%; `c1cnc(N2CC[C@@H](OCC3CC3)[C@@H]2Cc2cccnc2)nc1`: -4.73%; `Cn1ccc(C(=O)N2CCOC3(COCCN(CC4CC4)C3)C2)n1` (stereo unspecified): -3.98%. Regarding `CCOC(=O)[C@]12CCCN(Cc3ccco3)C[C@H]1CN(S(C)(=O)=O)C2`, the cytotoxicity at 70.5 h was -4.24%.

`CC1c2ncc(Cn3cccn3)n2CCN1S(C)(=O)=O` (stereo unspecified): the cytotoxicity at 70.5 h amounted to 19.8%. On to `O=S(=O)(c1cccs1)N1Cc2nc(CN3CCCC3)oc2C1`, for which the cytotoxicity at 70.5 h is -6.48%. To `CCN(CC)Cc1nc2c(o1)CN(S(=O)(=O)c1cccs1)C2` belongs -10.4%; to `c1cncc(OC[C@@]23CCC[C@@H]2CN(C2CCOCC2)C3)c1`, -1.53%. To `CCN(CC)Cc1cn2c(n1)CN(Cc1c(C)noc1C)CC2` belongs 0.0103%; to `Cc1noc(C)c1CN1CCn2cc(CN3CCCC3)nc2C1`, -4.15%; to `Cn1cc(CN2CCc3ccc(=O)n(Cc4ccncc4)c3CC2)cn1`, -7%. Next, `CN(C)CCN1C(=O)CCCC12CCCN(C(=O)c1ccncc1)C2` (stereo unspecified): -3.49%; `c1cncc(OC[C@]23COC[C@H]2CN(C2CCC2)C3)c1`: -1.17%; `N#Cc1ccc(N2CCC3(CCC(=O)N3Cc3cccnc3)CC2)nc1`: -5.74%.
